One experiment addresses human cathepsin K (UniProt P43236, Y175D/V274L, species not given). The experiment is described as follows: Cathepsin K Assay. It counts as biochemical. Particulars: IP from dose response curve; Z-Leu-Arg-AMC substrate, pH 5.5; read-out: hrbCat K (IP (nM)).
The target in a further experiment is T1, human cathepsin F (Homo sapiens, UniProt Q9UBX1).
T1 sequence (Q9UBX1 271-484): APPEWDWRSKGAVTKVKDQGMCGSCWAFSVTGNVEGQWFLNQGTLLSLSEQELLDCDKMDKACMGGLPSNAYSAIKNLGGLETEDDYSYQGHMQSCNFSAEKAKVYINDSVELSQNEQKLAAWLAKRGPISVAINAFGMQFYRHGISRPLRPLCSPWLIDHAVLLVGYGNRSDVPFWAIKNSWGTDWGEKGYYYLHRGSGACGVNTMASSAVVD
Briefly: Cathepsin F Assay. It counts as biochemical. As to conditions: IP from dose response curve; Z-Phe-Arg-AMC substrate, pH 5.5; read-out: hCat F (IP (nM)). The essentials: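 Human cathepsin F (10 nM) preincubated 15 min at room temperature with compounds in 50 mM MES pH 5.5, 2.5 mM EDTA, 2.5 mM DTT, 10% DMSO. Z-Phe-Arg-AMC (8 μM) added; AMC release read by fluorescence (Ex 360/Em 460 nm) over 20 min, inhibition fit to dose-response model.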

As for `N#Cc1cc(Cl)ccc1-n1cc(-c2ccc(N3CCS(=O)(=O)CC3)cc2)c([C@@H]2CCCC[C@H]2C(=O)NC2(C#N)CC2)n1` [Example 105, (1R,2R)-2-(1-(4-chloro-2-cyanophenyl)-4-(4-(1,1-dioxidothiomorpholino)phen-yl)-1H-pyrazol-3-yl)-N-(1-cyanocyclopropyl)cyclohex-anecarboxamide], the IC50 at human cathepsin K is 3.23 nM; at human cathepsin F, 1260 nM.

`N#Cc1cc(F)ccc1-n1cc(-c2ccc(N3CCS(=O)(=O)CC3)cc2)c([C@@H]2CCCC[C@H]2C(=O)NC2(C#N)CC2)n1` [Example 106, (1R,2R)-2-(1-(2-cyano-4-fluorophenyl)-4-(4-(1,1-dioxidothiomorpholino)phen-yl)-1H-pyrazol-3-yl)-N-(1-cyanocyclopropyl)cyclohex-anecarboxamide]: the results for the IC50 at human cathepsin K and on human cathepsin F were 2.88 nM and 1920 nM, respectively.

Take `Cc1ccc(-n2cc(-c3ccc(N4CCS(=O)(=O)CC4)cc3)c([C@@H]3CCCC[C@H]3C(=O)NC3(C#N)CC3)n2)c(C#N)c1` [Example 107, (1R,2R)-2-(1-(2-cyano-4-methylphenyl)-4-(4-(1,1-dioxidothiomorpholino)phen-yl)-1H-pyrazol-3-yl)-N-(1-cyanocyclopropyl)cyclohex-anecarboxamide]: the IC50 worked out at 3 nM on human cathepsin K and 1400 nM on human cathepsin F.

In the case of `N#CC1(NC(=O)[C@@H]2CCC(F)(F)C[C@H]2c2nn(-c3ccc(F)cc3)cc2-c2ccc(N3CCS(=O)(=O)CC3)cc2)CC1` [Example 108, (1R,2R)-N-(1-cyanocyclopropyl)-2-(4-(4-(1,1-dioxidothiomorpholino)phen-yl)-1-(4-fluorophenyl)-1H-pyrazol-3-yl)-4,4-difluorocyclohexanecarbox-amide], the IC50 on human cathepsin K is 2.32 nM; at human cathepsin F, 1010 nM.

Take `N#CC1(NC(=O)[C@@H]2CCCC[C@H]2c2nn(-c3ccc(C(O)(C(F)(F)F)C(F)(F)F)cc3)cc2-c2ccc(N3CCS(=O)(=O)CC3)cc2)CC1` [Example 109, (1R,2R)-N-(1-cyanocyclopropyl)-2-(4-(4-(1,1-dioxidothiomorpholino)phen-yl)-1-(4-(1,1,1,3,3,3-hexafluoro-2-hydroxypropan-2-yl)phenyl)-1H-pyrazol-3-yl)cyclohexanecarboxamide]: the values for the IC50 on human cathepsin K and at human cathepsin F were 2.67 nM and 267 nM, respectively.

Regarding `N#Cc1cc(-n2cc(-c3ccc(N4CCS(=O)(=O)CC4)cc3)c([C@@H]3CCCC[C@H]3C(=O)NC3(C#N)CC3)n2)ccc1F` [Example 110, (1R,2R)-2-(1-(3-cyano-4-fluorophenyl)-4-(4-(1,1-dioxidothiomorpholino)phen-yl)-1H-pyrazol-3-yl)-N-(1-cyanocyclopropyl)cyclohex-anecarboxamide], the results for the IC50 at human cathepsin K and at human cathepsin F were 0.83 nM and 275 nM, respectively.

`N#CC1(NC(=O)[C@@H]2CCCC[C@H]2c2nn(-c3ccc(OC(F)F)cc3)cc2-c2ccc(N3CCS(=O)(=O)CC3)cc2)CC1` [Example 111, (1R,2R)-N-(1-cyanocyclopropyl)-2-(1-(4-(difluoromethoxy)phenyl)-4-(4-(1,1-dioxidothiomorpholino)phen-yl)-1H-pyrazol-3-yl)cyclohexanecarboxamide]: the figures for the IC50 at human cathepsin K and on human cathepsin F were 0.86 nM and 392 nM, respectively.

Consider `N#CC1(NC(=O)[C@@H]2C[C@@H](F)CC[C@H]2c2nn(-c3ccc(F)cc3)cc2-c2ccc(N3CCS(=O)(=O)CC3)cc2)CC1` [Example 112, (1R,2R,5S)-N-(1-cyanocyclopropyl)-2-(4-(4-(1,1-dioxidothiomorpholino)phen-yl)-1-(4-fluorophenyl)-1H-pyrazol-3-yl)-5-fluorocyclohexanecarboxamide], for which the IC50 at human cathepsin K is 1.33 nM; on human cathepsin F, 922 nM.

`N#CC1(NC(=O)[C@@H]2CCCC[C@H]2c2nn(-c3cc(F)ccc3F)cc2-c2ccc(N3CCS(=O)(=O)CC3)cc2)CC1` [Example 114, (1R,2R)-N-(1-cyanocyclopropyl)-2-(1-(2,5-difluorophenyl)-4-(4-(1,1-dioxidothiomorpholino)phen-yl)-1H-pyrazol-3-yl)cyclohexanecarboxamide]: the IC50 on human cathepsin K amounted to 1.06 nM; at human cathepsin F, 633 nM.

In the case of `N#CC1(F)CCN(c2ccc(-c3cn(-c4ccc(F)cc4)nc3[C@@H]3CCCC[C@H]3C(=O)NC3(C#N)CC3)cc2)CC1` [Example 115, (1R,2R)-2-(4-(4-(4-cyano-4-fluoropiperidin-1-yl)phenyl)-1-(4-fluorophenyl)-1H-pyrazol-3-yl)-N-(1-cyanocyclopropyl)cyclohex-anecarboxamide], the IC50 amounted to 6.62 nM at human cathepsin K and 804 nM on human cathepsin F.

Regarding `CC1(C)CCC(C(=O)NC2(C#N)CC2)C(c2nn(-c3ccc(F)cc3)cc2-c2ccc(N3CCS(=O)(=O)CC3)cc2)C1` [Example 117, (1S,2S, or 1R,2R)-N-(1-cyanocyclopropyl)-2-(4-(4-(1,1-dioxidothiomorpholino)phen-yl)-1-(4-fluorophenyl)-1H-pyrazol-3-yl)-4,4-dimethylcyclohexanecarbox-amide], the IC50 on human cathepsin K was 13.9 nM; on human cathepsin F it was 1570 nM.

Take `N#CC1(NC(=O)[C@@H]2CCCC[C@H]2c2nn(-c3cc(F)cc(F)c3)cc2-c2ccc(N3CCS(=O)(=O)CC3)cc2)CC1` [Example 118, (1R,2R)-N-(1-cyanocyclopropyl)-2-(1-(3,5-difluorophenyl)-4-(4-(1,1-dioxidothiomorpholino)phen-yl)-1H-pyrazol-3-yl)cyclohexanecarboxamide]: the values for the IC50 at human cathepsin K and on human cathepsin F were 0.54 nM and 273 nM, respectively.

As to `N#CC1(NC(=O)[C@@H]2CCCC[C@H]2c2nn(-c3ccc(OC(F)(F)F)cc3)cc2-c2ccc(N3CCS(=O)(=O)CC3)cc2)CC1` [Example 119, (1R,2R)-N-(1-cyanocyclopropyl)-2-(4-(4-(1,1-dioxidothiomorpholino)phen-yl)-1-(4-(trifluoromethoxy)phenyl)-1H-pyrazol-3-yl)cyclohexanecarboxamide], the values for the IC50 on human cathepsin K and on human cathepsin F were 1.8 nM and 562 nM, respectively.

Regarding `N#CC1(NC(=O)[C@@H]2CCCC[C@H]2c2nn(-c3ccccc3C(F)(F)F)cc2-c2ccc(N3CCS(=O)(=O)CC3)cc2)CC1` [Example 120, (1R,2R)-N-(1-cyanocyclopropyl)-2-(4-(4-(1,1-dioxidothiomorpholino)phen-yl)-1-(2-(trifluoromethyl)phenyl)-1H-pyrazol-3-yl)cyclohexanecarboxamide], the IC50 was found to be 6.72 nM at human cathepsin K and 3120 nM on human cathepsin F.

As to `N#CC1(NC(=O)[C@@H]2CCCC[C@H]2c2nn(-c3ccc(C(F)(F)F)cc3)cc2-c2ccc(N3CCS(=O)(=O)CC3)cc2)CC1` [Example 121, (1R,2R)-N-(1-cyanocyclopropyl)-2-(4-(4-(1,1-dioxidothiomorpholino)phen-yl)-1-(4-(trifluoromethyl)phenyl)-1H-pyrazol-3-yl)cyclohexanecarboxamide], the IC50 on human cathepsin K came out at 3.08 nM; on human cathepsin F, 649 nM.

In the case of `N#CC1(NC(=O)[C@@H]2CCCC[C@H]2c2nn(-c3cccc(OC(F)(F)F)c3)cc2-c2ccc(N3CCS(=O)(=O)CC3)cc2)CC1` [Example 122, (1R,2R)-N-(1-cyanocyclopropyl)-2-(4-(4-(1,1-dioxidothiomorpholino)phen-yl)-1-(3-(trifluoromethoxy)phenyl)-1H-pyrazol-3-yl)cyclohexanecarboxamide], the IC50 at human cathepsin K was determined as 0.78 nM; at human cathepsin F, 466 nM.
